In ChEMBL document CHEMBL1201862, “PubChem BioAssay data set” (2004):
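Grown in 96-well plates, cells were treated for 48 hours with each compound at five concentrations. Insufficient inhibition: endpoint recorded as highest concentration tested. GI50: concentration for 50% inhibition of growth.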 Active and inactive are the calls of the source. Cut-off read from the data, not from the text of the source: active = GI50 up to about 1.1 µM and inactive = higher.

Key:
Assay in all cases: NCI anticancer screen, dose series, 48 h
HCT-116 = test system: HCT-116
SNB-75 = test system: SNB-75
OVCAR-8 = test system: OVCAR-8
PC-3 = test system: PC-3
MDA-N = test system: MDA-N
OVCAR-5 = test system: OVCAR-5
Malme-3M = test system: Malme-3M
CAKI-1 = test system: CAKI-1
HCC 2998 = test system: HCC 2998
NCI/ADR-RES = test system: NCI/ADR-RES
SW-620 = test system: SW-620
UACC-62 = test system: UACC-62
SK-MEL-2 = test system: SK-MEL-2
COLO 205 = test system: COLO 205
A498 = test system: A498
LOX IMVI = test system: LOX IMVI
HOP-62 = test system: HOP-62
NCI-H226 = test system: NCI-H226

Row | Structure (SMILES) | GI50 (HCT-116) | GI50 (SNB-75) | GI50 (OVCAR-8) | GI50 (PC-3) | GI50 (MDA-N) | GI50 (OVCAR-5) | GI50 (Malme-3M) | GI50 (CAKI-1) | GI50 (HCC 2998) | GI50 (NCI/ADR-RES) | GI50 (SW-620) | GI50 (UACC-62) | GI50 (SK-MEL-2) | GI50 (COLO 205) | GI50 (A498) | GI50 (LOX IMVI) | GI50 (HOP-62) | GI50 (NCI-H226)
1 | N=C1N(S(=O)(=O)c2ccccc2)[C@@H](Cc2ccccc2)[C@H](c2ccccc2)C1(c1ccccc1)c1ccccc1 | 40.4 µM (inactive) | > 100 µM (inactive) | 41 µM (inactive) | 9.62 µM (inactive) | > 100 µM (inactive) | > 100 µM (inactive) | > 100 µM (inactive) | > 100 µM (inactive) | 27.2 µM (inactive) | 70.1 µM (inactive) | > 100 µM (inactive) | > 100 µM (inactive) | > 100 µM (inactive) | 80.7 µM (inactive) | > 100 µM (inactive) | > 100 µM (inactive) | > 100 µM (inactive) | 
2 | COc1ccc(N2C(=O)/C(=C\c3cccc(Oc4ccccc4)c3)S(=O)(=O)C2c2ccccc2)cc1 (centres undefined) | 20.4 µM (inactive) |  |  | 56 µM (inactive) | 19.1 µM (inactive) | > 100 µM (inactive) | 24.4 µM (inactive) | 68.4 µM (inactive) | > 100 µM (inactive) | 16.2 µM (inactive) | 60.8 µM (inactive) | 25.1 µM (inactive) | 37.2 µM (inactive) | 64.1 µM (inactive) | 28.9 µM (inactive) | 27.6 µM (inactive) | 51.9 µM (inactive) | 64.7 µM (inactive)
3 | O=C1c2ccccc2-c2nc(-c3cccs3)cc3c2c1nc1ccccc13 | 14.3 µM (inactive) | 24.9 µM (inactive) | 41.8 µM (inactive) | 12.6 µM (inactive) | 6.97 µM (inactive) | 36.7 µM (inactive) | 3.56 µM (inactive) | 88.7 µM (inactive) | 16.7 µM (inactive) | 74.6 µM (inactive) | 13.8 µM (inactive) | 5.41 µM (inactive) | 13.6 µM (inactive) | 13.2 µM (inactive) |  | 8.24 µM (inactive) | 22 µM (inactive) | 47.8 µM (inactive)
4 | CC(C)NCCC(O)c1cc2ccccc2o1 (centres undefined) | > 100 µM (inactive) | 7.67 µM (inactive) | > 100 µM (inactive) | > 100 µM (inactive) | > 100 µM (inactive) | > 100 µM (inactive) | > 100 µM (inactive) | > 100 µM (inactive) |  | > 100 µM (inactive) | > 100 µM (inactive) | > 100 µM (inactive) | > 100 µM (inactive) | > 100 µM (inactive) | > 100 µM (inactive) | > 100 µM (inactive) | > 100 µM (inactive) | > 100 µM (inactive)
5 | OC(c1cc2ccc(C(F)(F)F)cc2c2cc(C(F)(F)F)ccc12)C1CCCCN1 (centres undefined) | 1.46 µM (inactive) | 1.29 µM (inactive) |  | 1.58 µM (inactive) | 1.75 µM (inactive) | 1.77 µM (inactive) | 0.0498 µM (active) | 1.8 µM (inactive) | 1.3 µM (inactive) | 1.82 µM (inactive) | 1.49 µM (inactive) | 2.06 µM (inactive) | 1.91 µM (inactive) | 1.59 µM (inactive) |  | 1.26 µM (inactive) | 1.85 µM (inactive) | 
6 | CC1=NNC(=O)C1C1C=C(c2c[nH]c3ccccc23)OC1=O (centres undefined) | > 100 µM (inactive) | > 100 µM (inactive) | > 100 µM (inactive) | > 100 µM (inactive) | > 100 µM (inactive) | > 100 µM (inactive) | > 100 µM (inactive) | > 100 µM (inactive) |  | > 100 µM (inactive) | > 100 µM (inactive) | > 100 µM (inactive) | > 100 µM (inactive) | > 100 µM (inactive) | > 100 µM (inactive) | > 100 µM (inactive) | > 100 µM (inactive) | > 100 µM (inactive)
7 | Cc1cc(C)c2c(O)cc(-c3cccc(Cl)c3)nc2n1 | 0.0791 µM (active) | 0.166 µM (active) | 0.4 µM (active) | 0.0282 µM (active) | 0.0138 µM (active) |  | 0.18 µM (active) |  | 0.403 µM (active) | 0.254 µM (active) | 0.0578 µM (active) | 0.0681 µM (active) |  | 0.175 µM (active) | 0.514 µM (active) | 0.273 µM (active) | 0.438 µM (active) | 0.391 µM (active)
8 | COc1nc(O)nc2c1C(c1ccc([N+](=O)[O-])cc1)c1c(OC)nc(O)nc1O2 | > 100 µM (inactive) |  | > 100 µM (inactive) | > 100 µM (inactive) | > 100 µM (inactive) | > 100 µM (inactive) |  | > 100 µM (inactive) |  | > 100 µM (inactive) | > 100 µM (inactive) | > 100 µM (inactive) | > 100 µM (inactive) | > 100 µM (inactive) | > 100 µM (inactive) |  | > 100 µM (inactive) | > 100 µM (inactive)
9 | COc1c(O)cc2c3c(ccnc13)NC=C2 | 76.9 µM (inactive) |  | > 100 µM (inactive) | 24.3 µM (inactive) | > 100 µM (inactive) | > 100 µM (inactive) | 85.7 µM (inactive) | > 100 µM (inactive) | > 100 µM (inactive) | > 100 µM (inactive) | 68.2 µM (inactive) | > 100 µM (inactive) | 57.9 µM (inactive) | > 100 µM (inactive) | > 100 µM (inactive) | 61.1 µM (inactive) |  | > 100 µM (inactive)
